Data from US7786143B2, “Thiazolyl piperidine derivatives” (Hoffman-La Roche Inc., priority 2005, dated 2010).

biological target: T1, histamine 3 receptor (H3R) (Homo sapiens, UniProt Q9Y5N1); assay: Binding assay with 3H-(R)α-methylhistamine, competition binding on membranes of the human HR3-CHO cell line; settings: competition with 3H(R)α-methylhistamine (1 nM), Ki calculated from IC50 by Cheng-Prusoff
T1 construct: expressed in transfected cells; host or cells: CHO cells (HR3-CHO)
Protocol: Binding Assay with ^3H-(R)α-methylhistamine
Saturation binding experiments were performed using HR3-CHO membranes prepared as described in Takahashi, K, Tokita, S., Kotani, H. (2003) J. Pharmacol. Exp. Therapeutics 307, 213-218.
An appropriate amount of membrane (60 to 80 μg protein/well) was incubated with increasing concentrations of ^3H(R)α-Methylhistamine di-hydrochloride (0.10 to 10 nM). Non specific binding was determined using a 200 fold excess of cold (R)α-Methylhistamine dihydrobromide (500 nM final concentration). The incubation was carried out at room temperature (in deep-well plates shaking for three hours). The final volume in each well was 250 μl. The incubation was followed by rapid filtration on GF/B filters (pre-soaked with 100 μl of 0.5% PEI in Tris 50 mM shaking at 200 rpm for two hours). The filtration was made using a cell-harvester and the filter plates were then washed five times with ice cold washing buffer containing 0.5 M NaCl. After harvesting, the plates were dried at 55° C. for 60 min, then we added scintillation fluid (Microscint 40, 40 microl in each well) and the amount of radioactivity on the filter was determined in Packard top-counter after shaking the plates for two hours at 200 rpm at room temperature.
Binding Buffer: 50 mM Tris-HCl pH 7.4 and 5 mM MgCl2×6H2O pH 7.4. Washing Buffer: 50 mM Tris-HCl pH 7.4 and 5 mM MgCl2×6H2O and 0.5 M NaCl pH 7.4.
Indirect measurement of affinity of H3R inverse agonists: twelve increasing concentrations (ranging from 10 μM to 0.3 nM) of the selected compounds were always tested in competition binding experiments using membrane of the human HR3-CHO cell line. […]
All compounds were tested at a single concentration in duplicates. […] Ki's were calculated from IC50 based on Cheng-Prusoff equation (Cheng, Y, Prusoff, W H (1973) Biochem Pharmacol 22, 3099-3108).

T1 sequence (Q9Y5N1 whole entry): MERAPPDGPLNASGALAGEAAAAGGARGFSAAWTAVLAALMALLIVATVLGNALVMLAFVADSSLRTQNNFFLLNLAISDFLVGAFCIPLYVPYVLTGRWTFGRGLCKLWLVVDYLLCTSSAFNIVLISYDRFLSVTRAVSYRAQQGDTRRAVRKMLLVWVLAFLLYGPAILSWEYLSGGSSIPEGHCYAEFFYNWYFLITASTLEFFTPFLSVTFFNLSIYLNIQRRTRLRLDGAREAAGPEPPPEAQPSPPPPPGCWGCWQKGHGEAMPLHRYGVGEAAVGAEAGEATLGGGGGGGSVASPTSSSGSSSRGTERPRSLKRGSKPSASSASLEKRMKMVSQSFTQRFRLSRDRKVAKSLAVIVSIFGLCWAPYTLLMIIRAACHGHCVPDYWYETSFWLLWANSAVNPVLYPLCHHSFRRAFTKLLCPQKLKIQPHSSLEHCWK

| Ki | Compound |
| --- | --- |
| 0.028 µM | COc1ccc(-c2csc(C3CCN(C(C)C)CC3)n2)cc1 [Example 9, 1-isopropyl-4-[4-(4-methoxy-phenyl)-thiazol-2-yl]-piperidine] |
| 0.123 µM | c1cc2c(cc1-c1csc(C3CCN(C4CCCC4)CC3)n1)OCCO2 [Example 52, 1-cyclopentyl-4-[4-(2,3-dihydro-benzo[1,4]dioxin-6-yl)-thiazol-2-yl]-piperidine] |
| 0.156 µM | CC1CCCCN1C(=O)c1csc(C2CCN(C3CCCC3)CC2)n1 (stereo not drawn) [Example 68, [2-(1-cyclopentyl-piperidin-4-yl)-thiazol-4-yl]-(2-methyl-piperidin-1-yl)-methanone] |
